Consider twelve molecules from patent US10428060B2, “PI-kinase inhibitors with anti-infective activity” (The Board of Trustees of the Leland Stanford Junior …, priority 2011, dated 2019).

“Also recorded” adds a separate entry of the source.

As a reminder, the EC50 is the concentration that produces a half-maximal response. One may read the IC50 as the midpoint of a concentration-inhibition curve. Read a high IC50 as weaker potency in that assay.

Data set [1] has as its system PI(4)P and PI(4,5)P2 pools in Huh7.5 cells. Briefly: Immunofluorescence of intracellular PI-4 and PIP2 pools in Huh7.5 cells. Format: cell-based. On the procedure:
To further confirm its mechanism of action the effect of (1) on PI-4 levels was determined in cells using immunofluorescence to monitor the intracellular localized pools of PI-4. The effect of (1) on intracellular pools of PIP2 was tested, which were predicted to be similarly sensitive to inhibition using (1). […] Uninfected Huh7.5 cells or HCV-infected Huh7.5 cells were used.

The next data set concerns HCV genotype 2a. Briefly: microbe, parasite or virus in culture. The format is cell-based. Conditions: Hepatitis C virus, Huh7.5, read-out: HCV2a EC50.
A further data set addresses PI3KC2B (Homo sapiens, UniProt O00750). Briefly: PI3KC2B kinase assay. The format is biochemical. The protocol:
(§1) PI-kinase assay: Compounds are tested in C.1.1. PI kinase assays as described by Shokat et al., “A membrane capture assay for lipid kinase activity.” Nat. Protoc. 2007; 2(10):2459-66.

Another data set concerns HRV. The data set can be described thus: Rhinovirus antiviral assay. The format is cell-based. Conditions: Human rhinovirus sp.
A further data set has as its target T1, PI3K p110g (Homo sapiens, UniProt P48736).
T1 construct: purchased Millipore
The data set can be described thus: PI3K p110g kinase assay. Format: biochemical. On the procedure: (§2) In the assays described here, p110α-p85 complex and p110γ were acquired from Millipore. Assays were performed with Lα-phosphatidylinositol (Avanti) as described in Knight et al. Nat Protoc. 2007; 2 (10):2459-66. Inhibitor series were prepared 10% DMSO as 5× stocks for the assay. Assays of HsVps34 were performed as described in Knight et al, except that the final assay buffer composition used was changed to 20 mM HEPES 7.5, 100 mM NaCl, 3 mM MgCl, 1 mg/mL PI and 44 nM hvps34 was used in the assay. […] COS-7 cells were cultured in 10 cm dishes and transfected at 70% confluence with 10 μg of plasmid DNA (HA-tagged bovine PI4KIIIβ, HA-tagged human PI4KIIIα) using Lipofectamine 2000 and 5 ml Opti-MEM following the manufacturer's instructions. After 5 hours the transfection medium was replaced with 10 ml complete DMEM. 36 hrs post transfection, cells were washed once with 5 ml PBS (pH 7.4) and lysed in 1 ml of lysis buffer (1) on ice. Lysates were collected by scraping and after 15 min they were centrifuged at 13,000 rpm for 10 min. To the lysates was added 200 μl of protein G Sepharose 4 fast flow beads that were prewashed with PBS and lysis buffer and 2 μg of anti-HA antibody. The tubes were then incubated overnight at 4 degrees C. in a tube rotator. The Sepharose beads in the lysate were washed twice with 150 mM NaCl in RIPA buffer, twice with RIPA buffer and once with kinase buffer (50 mM Tris/HCl, pH 7.5, 20 mM MgCl2, 1 mM EGTA, 1 mM PtdIns, 0.4% Triton X-100, 0.5 mg/mL BSA) and finally the beads were resuspended in 200 μL kinase buffer. Kinase reactions were run in a mixture of 45 μL of PI buffer (1 mM PI in kinase buffer), 10 μL of immunoprecipitated beads, 2 µL of inhibitors (dissolved and diluted in DMSO) or DMSO and 5 μL of [γ-^32P]-ATP (1 mM and 2 μCi/tube). The immunoprecipitates in PI buffer were pre-incubated with the drugs for 20 min prior the initiation of kinase reaction by adding ATP and the reactions were carried out for 30 min in 15 ml polypropolyne tubes. Reactions were terminated by addition of 3 ml of CHCl3:CH3OH:HCl (200:100:0.75) followed by 0.6 ml of 0.6N HCl to induce phase separation. The mixtures were vortexed, centrifuged at 2000 rpm for 2 min and the upper phase was discarded. To the lower phase was added 1.5 ml of CHCl3:CH3OH:0.6N HCl (3:48:47) and the mixture vortexed and centrifuged at 2000 rpm for 2 min. The lower phase was then transferred to counting vials and evaporated. Samples were counted in a scintillation beta counter after adding 5 ml of Instafluor (Perkin-Elmer).
as §1

Another data set has as its target T2, PI4KIIIB (Bos taurus, UniProt O02810).
T2 construct: made in house; host or cells: COS-7 cells, transient transfection, anti-HA immunoprecipitate on protein G Sepharose beads
The data set can be described thus: PI4KIIIB kinase assay. The format is biochemical, bovine. The protocol: as §2, with “2007; 2 (10):2459-66.” left out, “for” for “for the assay. Assays of HsVps34 were performed as described in Knight et al, except that the final assay buffer composition used was changed to 20 mM HEPES 7.5, 100 mM NaCl, 3 mM MgCl, 1 mg/mL PI and 44 nM hvps34 was used in”, “Lysates were collected by scraping and after 15 min they were centrifuged at 13,000 rpm for 10 min.” left out, “The Sepharose beads in the lysate were washed twice with 150 mM NaCl in RIPA buffer, twice with RIPA buffer and once with kinase buffer (50 mM Tris/HCl, pH 7.5, 20 mM MgCl2, 1 mM EGTA, 1 mM PtdIns, 0.4% Triton X-100, 0.5 mg/mL BSA) and finally the beads were resuspended in 200 μL kinase buffer.” left out
PI-kinase assay: Compounds are tested in C.1.1. PI kinase assays as described by Shokat et al., “A membrane capture assay for lipid kinase activity.” Nat. Protoc.

The target in the next data set is T3, PI3K p110a (Homo sapiens, UniProt P42336).
T3 construct: purchased Millipore
The data set can be described thus: PI3K p110a kinase assay. The format is biochemical. On the procedure:
In the assays described here, p110α-p85 complex and p110γ were acquired from Millipore. Assays were performed with Lα-phosphatidylinositol (Avanti) as described in Knight et al. Nat Protoc. […] Inhibitor series were prepared 10% DMSO as 5× stocks for the assay. […] COS-7 cells were cultured in 10 cm dishes and transfected at 70% confluence with 10 μg of plasmid DNA (HA-tagged bovine PI4KIIIβ, HA-tagged human PI4KIIIα) using Lipofectamine 2000 and 5 ml Opti-MEM following the manufacturer's instructions. After 5 hours the transfection medium was replaced with 10 ml complete DMEM. 36 hrs post transfection, cells were washed once with 5 ml PBS (pH 7.4) and lysed in 1 ml of lysis buffer (1) on ice. […] To the lysates was added 200 μl of protein G Sepharose 4 fast flow beads that were prewashed with PBS and lysis buffer and 2 μg of anti-HA antibody. The tubes were then incubated overnight at 4 degrees C. in a tube rotator. […] Kinase reactions were run in a mixture of 45 μL of PI buffer (1 mM PI in kinase buffer), 10 μL of immunoprecipitated beads, 2 µL of inhibitors (dissolved and diluted in DMSO) or DMSO and 5 μL of [γ-^32P]-ATP (1 mM and 2 μCi/tube). […] Samples were counted in a scintillation beta counter after adding 5 ml of Instafluor (Perkin-Elmer). […]

For a further data set, the target named is T4, PI4KIIIA (Homo sapiens, UniProt P42356).
T4 construct: made in house; host or cells: COS-7 cells, transient transfection, anti-HA immunoprecipitate on protein G Sepharose beads
The data set can be described thus: PI4KIIIA kinase assay. The format is biochemical. On the procedure: as §2, with “Reactions were terminated by addition of 3 ml of CHCl3:CH3OH:HCl (200:100:0.75) followed by 0.6 ml of 0.6N HCl to induce phase separation. The mixtures were vortexed, centrifuged at 2000 rpm for 2 min and the upper phase was discarded. To the lower phase was added 1.5 ml of CHCl3:CH3OH:0.6N HCl (3:48:47) and the mixture vortexed and centrifuged at 2000 rpm for 2 min. The lower phase was then transferred to counting vials and evaporated.” left out, “(Perkin-Elmer). […]” for “(Perkin-Elmer).”

Setting [2] is: immunofluorescence, 250 nM, 500 nM or 1 uM, uninfected or HCV-infected Huh7.5 cells.

Chain of PI3KC2B (O00750 whole entry): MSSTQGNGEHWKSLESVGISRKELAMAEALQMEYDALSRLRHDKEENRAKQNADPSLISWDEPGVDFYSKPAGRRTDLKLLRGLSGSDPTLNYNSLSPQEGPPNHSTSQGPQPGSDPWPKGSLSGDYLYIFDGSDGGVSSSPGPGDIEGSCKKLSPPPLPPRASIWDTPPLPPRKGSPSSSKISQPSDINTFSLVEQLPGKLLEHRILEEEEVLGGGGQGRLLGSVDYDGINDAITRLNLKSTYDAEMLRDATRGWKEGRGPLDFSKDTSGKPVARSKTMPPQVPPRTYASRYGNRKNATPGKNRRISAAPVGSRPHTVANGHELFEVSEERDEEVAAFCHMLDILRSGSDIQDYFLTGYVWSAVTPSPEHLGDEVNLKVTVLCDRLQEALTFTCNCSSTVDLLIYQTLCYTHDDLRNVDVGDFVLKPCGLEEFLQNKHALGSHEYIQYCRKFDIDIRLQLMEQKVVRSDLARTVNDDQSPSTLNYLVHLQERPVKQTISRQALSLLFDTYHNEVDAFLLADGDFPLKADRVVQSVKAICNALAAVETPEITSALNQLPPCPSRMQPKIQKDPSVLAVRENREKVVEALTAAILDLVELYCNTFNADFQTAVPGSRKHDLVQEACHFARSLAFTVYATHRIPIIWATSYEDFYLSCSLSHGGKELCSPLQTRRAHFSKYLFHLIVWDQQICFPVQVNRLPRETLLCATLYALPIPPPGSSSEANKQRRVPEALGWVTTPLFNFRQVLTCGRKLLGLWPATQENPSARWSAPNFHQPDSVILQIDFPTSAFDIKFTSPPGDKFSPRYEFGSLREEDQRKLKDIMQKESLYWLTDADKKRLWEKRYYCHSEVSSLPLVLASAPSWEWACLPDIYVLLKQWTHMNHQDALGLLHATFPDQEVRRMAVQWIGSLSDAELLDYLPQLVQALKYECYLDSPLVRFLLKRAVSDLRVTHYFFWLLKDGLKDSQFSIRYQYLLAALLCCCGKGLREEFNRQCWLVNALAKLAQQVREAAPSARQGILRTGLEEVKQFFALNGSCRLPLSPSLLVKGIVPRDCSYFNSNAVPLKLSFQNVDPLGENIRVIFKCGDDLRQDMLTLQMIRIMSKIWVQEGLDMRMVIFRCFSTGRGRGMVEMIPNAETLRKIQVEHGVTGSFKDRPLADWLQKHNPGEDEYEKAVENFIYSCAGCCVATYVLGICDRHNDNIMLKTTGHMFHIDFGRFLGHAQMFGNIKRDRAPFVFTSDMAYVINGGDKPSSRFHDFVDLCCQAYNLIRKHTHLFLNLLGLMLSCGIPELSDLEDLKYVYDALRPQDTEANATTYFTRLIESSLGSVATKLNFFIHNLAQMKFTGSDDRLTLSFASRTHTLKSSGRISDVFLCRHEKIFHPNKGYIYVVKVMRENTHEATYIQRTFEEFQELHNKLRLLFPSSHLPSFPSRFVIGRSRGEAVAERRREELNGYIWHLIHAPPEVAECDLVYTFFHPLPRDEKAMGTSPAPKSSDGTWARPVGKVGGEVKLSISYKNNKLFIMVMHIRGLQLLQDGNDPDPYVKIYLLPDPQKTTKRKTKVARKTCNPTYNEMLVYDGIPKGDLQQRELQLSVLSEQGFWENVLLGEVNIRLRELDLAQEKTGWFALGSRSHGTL
T1 sequence (P48736 whole entry): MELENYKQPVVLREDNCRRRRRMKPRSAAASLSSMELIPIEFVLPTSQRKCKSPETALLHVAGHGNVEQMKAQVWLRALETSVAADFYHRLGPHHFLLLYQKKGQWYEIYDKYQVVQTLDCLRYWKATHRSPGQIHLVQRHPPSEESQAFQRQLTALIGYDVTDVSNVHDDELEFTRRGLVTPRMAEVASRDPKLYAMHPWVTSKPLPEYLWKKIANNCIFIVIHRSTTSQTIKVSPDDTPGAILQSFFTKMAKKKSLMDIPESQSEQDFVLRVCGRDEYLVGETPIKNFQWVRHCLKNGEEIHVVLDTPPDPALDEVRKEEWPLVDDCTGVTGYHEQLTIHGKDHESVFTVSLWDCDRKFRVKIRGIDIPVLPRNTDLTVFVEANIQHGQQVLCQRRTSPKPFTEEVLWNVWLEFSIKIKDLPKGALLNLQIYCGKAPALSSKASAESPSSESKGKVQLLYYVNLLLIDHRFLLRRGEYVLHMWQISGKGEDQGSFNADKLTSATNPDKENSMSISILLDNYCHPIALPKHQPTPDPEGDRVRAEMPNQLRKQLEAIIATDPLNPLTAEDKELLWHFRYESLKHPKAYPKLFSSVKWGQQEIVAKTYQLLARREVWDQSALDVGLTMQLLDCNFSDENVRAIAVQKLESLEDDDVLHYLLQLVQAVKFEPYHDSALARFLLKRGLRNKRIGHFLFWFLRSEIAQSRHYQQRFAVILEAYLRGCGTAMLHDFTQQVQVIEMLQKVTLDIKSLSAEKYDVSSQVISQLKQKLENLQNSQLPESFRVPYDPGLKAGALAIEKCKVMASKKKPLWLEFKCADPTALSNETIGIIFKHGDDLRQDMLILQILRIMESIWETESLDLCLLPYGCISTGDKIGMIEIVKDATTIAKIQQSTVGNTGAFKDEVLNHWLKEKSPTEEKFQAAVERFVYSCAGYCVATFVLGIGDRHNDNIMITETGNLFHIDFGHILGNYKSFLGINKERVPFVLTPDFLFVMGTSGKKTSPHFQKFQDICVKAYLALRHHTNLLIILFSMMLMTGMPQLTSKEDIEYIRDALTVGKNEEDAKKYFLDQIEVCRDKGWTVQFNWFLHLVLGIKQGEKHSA
T2 sequence (O02810 whole entry): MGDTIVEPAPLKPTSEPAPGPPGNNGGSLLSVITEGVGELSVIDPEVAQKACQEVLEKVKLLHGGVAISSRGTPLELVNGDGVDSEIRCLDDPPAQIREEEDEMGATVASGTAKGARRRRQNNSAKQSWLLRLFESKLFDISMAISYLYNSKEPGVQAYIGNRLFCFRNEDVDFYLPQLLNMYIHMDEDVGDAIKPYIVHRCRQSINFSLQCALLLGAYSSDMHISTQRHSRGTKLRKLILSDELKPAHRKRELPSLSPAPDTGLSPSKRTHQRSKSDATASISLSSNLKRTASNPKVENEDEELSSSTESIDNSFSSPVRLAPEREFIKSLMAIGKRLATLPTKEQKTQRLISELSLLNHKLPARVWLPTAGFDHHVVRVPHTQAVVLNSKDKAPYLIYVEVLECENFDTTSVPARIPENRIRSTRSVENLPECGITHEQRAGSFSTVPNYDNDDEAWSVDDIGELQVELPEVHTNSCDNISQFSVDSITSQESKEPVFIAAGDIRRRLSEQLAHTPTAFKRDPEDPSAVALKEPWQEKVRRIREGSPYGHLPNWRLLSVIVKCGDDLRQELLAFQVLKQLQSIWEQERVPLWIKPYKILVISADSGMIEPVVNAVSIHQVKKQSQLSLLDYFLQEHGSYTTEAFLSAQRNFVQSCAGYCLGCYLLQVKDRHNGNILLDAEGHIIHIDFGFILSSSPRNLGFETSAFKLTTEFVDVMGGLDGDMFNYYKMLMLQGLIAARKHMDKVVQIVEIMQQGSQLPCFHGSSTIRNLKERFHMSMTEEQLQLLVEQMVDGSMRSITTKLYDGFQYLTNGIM

As for `COc1ccc(-c2sc(NC(=O)C3CCCC3)nc2C)cc1S(=O)(=O)Nc1ccc(O)cc1` [Compound 1], in data set [1] (control for non-specific effects), the “Effect on the ER (calnexin co-staining)” value is recorded as “absence of any detectable effects on the ER”. In data set [1] (setting [2]), the “Effect on intracellular PI-4 (PI(4)P) levels” value is “dose-dependent decrease; also recorded: decreases” and the “Effect on intracellular PIP2 (PI(4,5)P2) levels” value is reported as “dose-dependent decrease; also recorded: decreases”.
`COc1ccc(-c2sc(NC(=O)CC3CCCC3)nc2C)cc1S(=O)(=O)Nc1ccc(O)cc1` [Compound S-1, 2-cyclopentyl-N-[5-[3-[(4-hydroxyphenyl)sulfamoyl]-4-methoxy-phenyl]-4-methyl-thiazol-2-yl]acetamide]: the EC50 was 1 to 100 nM with HCV genotype 2a and less than 1 nM with HRV. Besides, the IC50 against PI3KC2B and on PI3K p110g was greater than 10000 nM each time.
With `COc1ccc(NS(=O)(=O)c2cc(-c3sc(NC4CCCCC4)nc3C)ccc2OC)c(C)c1` [Compound S-66, 5-[2-(cyclohexylamino)-4-methyl-thiazol-5-yl]-2-methoxy-N-(4-methoxy-2-methyl-phenyl)benzenesulfonamide; 2,2,2-trifluoroacetic acid], the EC50 in the data set with HCV genotype 2a is 1000 to 10000 nM; in the data set with HRV, less than 1 nM.
For `COc1ccc(-c2sc(NCC3CCCCC3)nc2C)cc1S(=O)(=O)NC1CCCNC1` (stereo not shown) [Compound S-115, 5-[2-(cyclohexylmethylamino)-4-methyl-thiazol-5-yl]-2-methoxy-N-(3-piperidyl)benzenesulfonamide], the EC50 with HCV genotype 2a was 100 to 1000 nM; in the data set on HRV it was less than 1 nM. At PI4KIIIB, this molecule showed an IC50 of less than 100 nM.
For `COc1ccc(-c2sc(N[C@H](C)C3CCCCC3)nc2C)cc1S(=O)(=O)NC1CCCNC1` (stereo partly drawn) [Compound S-148, 5-[2-[[(1R)-1-cyclohexylethyl]amino]-4-methyl-thiazol-5-yl]-2-methoxy-N-(3-piperidyl)benzenesulfonamide], the IC50 is greater than 10000 nM on PI3K p110g, greater than 10000 nM against PI3K p110a, less than 100 nM against PI4KIIIB and 100 to 1000 nM against PI4KIIIA.
In the case of `COc1ccc(-c2sc(NC(=O)CCC3CCCC3)nc2C)cc1S(=O)(=O)NC1CCNCC1` [Compound S-160, 3-cyclopentyl-N-[5-[4-methoxy-3-(4-piperidylsulfamoyl)phenyl]-4-methyl-thiazol-2-yl]propanamide], the half-inhibitory concentration (IC50) on PI3KC2B and on PI3K p110g was greater than 10000 nM in each case.
At PI3KC2B, `COc1ccc(-c2sc(N[C@H](C)C3CCCCC3)nc2C)cc1S(=O)(=O)N[C@H]1CC[C@H](O)CC1` [Compound S-193, 5-[2-[[(1R)-1-cyclohexylethyl]amino]-4-methyl-thiazol-5-yl]-N-(4-hydroxycyclohexyl)-2-methoxy-benzenesulfonamide] gave an IC50 greater than 10000 nM.
Regarding `COc1ccc(-c2sc(NC(C)C)nc2C)cc1S(=O)(=O)N[C@H]1CC[C@H](O)CC1` [Compound S-215, N-(4-hydroxycyclohexyl)-5-[2-(isopropylamino)-4-methyl-thiazol-5-yl]-2-methoxy-benzenesulfonamide], the IC50 against PI3KC2B and at PI3K p110g was greater than 10000 nM each time.
As for `COc1ccc(-c2sc(NC(C)(C)C)nc2C)cc1S(=O)(=O)N[C@H]1CC[C@H](O)CC1` [Compound S-216, 5-[2-(tert-butylamino)-4-methyl-thiazol-5-yl]-N-(4-hydroxycyclohexyl)-2-methoxy-benzenesulfonamide], the concentration for half-maximal inhibition (IC50) against PI3KC2B and at PI3K p110g was greater than 10000 nM in each case.
For the molecule `COc1ccc(-c2sc(NC(=O)CC3CCOCC3)nc2C)cc1S(=O)(=O)Nc1ccc(O)cc1C` [Compound S-231, N-[5-[3-[(4-hydroxy-2-methyl-phenyl)sulfamoyl]-4-methoxy-phenyl]-4-methyl-thiazol-2-yl]-2-tetrahydropyran-4-yl-acetamide], the IC50 at PI3KC2B and at PI3K p110g was greater than 10000 nM each time.
Consider `COc1ncc(-c2sc(NC(=O)CC3CCOCC3)nc2C)cc1S(=O)(=O)Nc1ccc(F)cc1F` [Compound S-260], for which the figures for the EC50 with HCV genotype 2a and with HRV were 100 to 1000 nM and 1000 to 10000 nM, respectively. The molecule also displayed an IC50 at PI3K p110g greater than 10000 nM.
Take `COc1ncc(-c2sc(NC(=O)CC3CCOCC3)nc2C)cc1S(=O)(=O)Nc1ccc(O)cc1` [Compound S-261]: the EC50 in the data set on HCV genotype 2a lay within 1 to 100 nM; in the data set on HRV, 1000 to 10000 nM. For the same molecule, the IC50 at PI3K p110g was 100 to 1000 nM.
